Data reported in patent US20080176838A1, “Dpp-IV Inhibitors” (SANTHERA PHARMACEUTICALS (DEUTSCHLAND) AG, priority 2004, published 2008).
pIC50: −log10 of the molar value.

Target: T1, DPP-IV (Homo sapiens, UniProt P27487)
T1 construct: Soluble human DPP-IV lacking the transmembrane anchor (Gly31-Pro766); Pre-Pro-alpha-mating factor leader (secretion fusion) (N, cleaved yes); made in house
Assay: Continuous fluorimetric assay of inhibition of DPP-IV peptidase activity (cleavage of Gly-Pro-AMC)
Format: biochemical
Details: substrate Gly-Pro-AMC 16 μM, pH 7.4, 25° C., 1% DMSO
Method: Inhibition of DPP-IV peptidase activity was monitored with a continuous fluorimetric assay. This assay is based on the cleavage of the substrate Gly-Pro-AMC (Bachem) by DPP-IV, releasing free AMC. The assay is carried out in 96-well microtiterplates. In a total volume of 100 μL, compounds are preincubated with […] DPP-IV employing a buffer containing 10 mM Hepes, 150 mM NaCl, 0.005% Tween 20 (pH 7.4). […] The final concentration of DMSO is 1%. The inhibitory potential of the compounds were determined.
Soluble human DPP-IV lacking the transmembrane anchor (Gly31-Pro766) was expressed in a recombinant YEAST-strain as Pre-Pro-alpha-mating fusion.

T1 sequence (P27487 31-766): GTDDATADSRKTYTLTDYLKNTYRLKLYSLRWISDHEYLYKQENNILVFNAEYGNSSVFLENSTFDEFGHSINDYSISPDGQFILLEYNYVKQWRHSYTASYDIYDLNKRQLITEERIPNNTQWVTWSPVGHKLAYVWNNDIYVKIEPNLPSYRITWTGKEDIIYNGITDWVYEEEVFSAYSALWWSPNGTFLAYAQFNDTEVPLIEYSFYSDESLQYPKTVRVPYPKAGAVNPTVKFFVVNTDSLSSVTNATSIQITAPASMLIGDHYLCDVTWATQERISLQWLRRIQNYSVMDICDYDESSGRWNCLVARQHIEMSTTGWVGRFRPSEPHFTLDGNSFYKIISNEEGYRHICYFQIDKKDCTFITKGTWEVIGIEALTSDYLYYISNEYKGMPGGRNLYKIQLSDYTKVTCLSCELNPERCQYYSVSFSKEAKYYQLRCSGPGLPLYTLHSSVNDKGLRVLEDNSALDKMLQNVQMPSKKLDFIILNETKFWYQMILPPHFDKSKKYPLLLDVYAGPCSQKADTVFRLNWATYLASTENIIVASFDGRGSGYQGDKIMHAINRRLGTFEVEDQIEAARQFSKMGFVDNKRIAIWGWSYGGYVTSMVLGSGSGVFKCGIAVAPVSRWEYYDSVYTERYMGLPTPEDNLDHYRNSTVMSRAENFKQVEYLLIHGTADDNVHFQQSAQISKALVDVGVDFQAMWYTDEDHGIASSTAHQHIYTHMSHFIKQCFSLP

Compound	pIC50
N[C@@H](CCN1Cc2ccccc2C[C@H]1C(=O)NC1CC1)Cc1ccccc1F [Example 26]	6.00 to 7.00
N[C@@H](CCN1Cc2ccccc2C[C@H]1COc1cccc(F)c1)Cc1ccccc1F [Example 47]	6.00 to 7.00
N[C@@H](CCN1CCOCC1CNS(=O)(=O)C1CC1)Cc1ccccc1F (some centres unmarked) [Example 35]	6.00 to 7.00
COC[C@@H]1CCCN1CC[C@H](N)Cc1ccccc1F [Example 48]	6.00 to 7.00
N[C@@H](CCN1CCC[C@H]1COCc1ccccc1)Cc1ccccc1F [Example 44, (1R)-3-[(2S)-2-Benzyloxymethyl-pyrrolidin-1-yl]-1-(2-fluoro-benzyl)-propylamine]	6.00 to 7.00
N[C@@H](CCN1Cc2ccccc2C[C@H]1CNC(=O)C1CC1)Cc1ccccc1F [Example 28]	6.00 to 7.00
N[C@@H](CCN1CCC[C@H]1CNS(=O)(=O)C1CC1)Cc1ccccc1F [Example 29]	> 7.00

Next, values leading:

pIC50	Compound
> 7.00	N[C@@H](CCN1CCC[C@H]1CNS(=O)(=O)CC(F)(F)F)Cc1ccccc1F [Example 33]
> 7.00	N[C@@H](CCN1CCC[C@H]1COc1cccc(F)c1)Cc1ccccc1F [Example 46]
> 7.00	N#Cc1cccc(S(=O)(=O)NC[C@@H]2CCCN2CC[C@H](N)Cc2ccccc2F)c1 [Example 31]
> 7.00	N[C@@H](CCN1CCC[C@H]1CNC(=O)C1CC1)Cc1ccccc1F [Example 27, Cyclopropanecarboxylic acid {1-[(3R)-amino-4-(2-fluoro-phenyl)-butyl]-pyrrolidin-(2S)-ylmethyl}-amide]
> 7.00	N[C@@H](CCN1CCC[C@H]1COc1cccc(F)c1)Cc1cccc(Cl)c1 [Example 45, (1R)-(3-Chloro-benzyl)-3-[(2S)-(3-fluoro-phenoxymethyl)-pyrrolidin-1-yl]-propylamine]
> 7.00	N[C@@H](CCN1CCC[C@H]1CNS(=O)(=O)c1ccccc1)Cc1ccccc1F [Example 25]
> 7.00	CS(=O)(=O)NC[C@@H]1CCCN1CC[C@H](N)Cc1ccccc1F [Example 30]
